# Entries after “also recorded” stand apart in the source; their conditions may differ. Read-outs that look alike come from different tables or passages of the source.
# Columns and labels:
# CIIbeta = CIIbeta (Homo sapiens, UniProt O00750); assay: InvitroGen Adapta kinase assay, CIIbeta; format: biochemical
# mTOR = mTOR (Homo sapiens, UniProt P42345); assay: InvitroGen Adapta kinase assay, mTOR; format: biochemical
# PIP5Kβ = PIP5Kβ (Homo sapiens, UniProt O14986); assay: InvitroGen Adapta kinase assay, PIP5Kβ; format: biochemical; conditions: Other Phosphoinositide kinases; head prints no unit
# Sequence of PIP5Kβ (O14986 whole entry, canonical isoform): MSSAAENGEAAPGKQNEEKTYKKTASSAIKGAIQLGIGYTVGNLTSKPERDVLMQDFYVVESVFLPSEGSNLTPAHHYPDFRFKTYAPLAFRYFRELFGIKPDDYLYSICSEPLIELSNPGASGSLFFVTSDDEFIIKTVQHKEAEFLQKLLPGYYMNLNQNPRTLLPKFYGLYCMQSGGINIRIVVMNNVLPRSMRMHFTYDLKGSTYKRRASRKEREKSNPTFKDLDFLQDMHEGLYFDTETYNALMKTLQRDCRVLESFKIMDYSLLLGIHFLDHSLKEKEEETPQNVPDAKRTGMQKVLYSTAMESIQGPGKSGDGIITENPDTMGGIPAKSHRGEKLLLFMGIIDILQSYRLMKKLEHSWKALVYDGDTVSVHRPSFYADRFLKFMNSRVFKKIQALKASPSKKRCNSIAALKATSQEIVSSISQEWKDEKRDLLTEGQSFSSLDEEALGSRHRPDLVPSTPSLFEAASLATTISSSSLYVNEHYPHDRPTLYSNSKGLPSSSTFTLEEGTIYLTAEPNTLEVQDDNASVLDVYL
# PI3Kα = PI3Kα (Mus musculus, UniProt P42337); assay: Isoform specific cell-based assay: PDGF induced pAKT in Swiss-3T3 fibroblasts; conditions: Fibroblast Cell Line, n = 12
# Sequence of PI3Kα (P42337 whole entry, canonical isoform): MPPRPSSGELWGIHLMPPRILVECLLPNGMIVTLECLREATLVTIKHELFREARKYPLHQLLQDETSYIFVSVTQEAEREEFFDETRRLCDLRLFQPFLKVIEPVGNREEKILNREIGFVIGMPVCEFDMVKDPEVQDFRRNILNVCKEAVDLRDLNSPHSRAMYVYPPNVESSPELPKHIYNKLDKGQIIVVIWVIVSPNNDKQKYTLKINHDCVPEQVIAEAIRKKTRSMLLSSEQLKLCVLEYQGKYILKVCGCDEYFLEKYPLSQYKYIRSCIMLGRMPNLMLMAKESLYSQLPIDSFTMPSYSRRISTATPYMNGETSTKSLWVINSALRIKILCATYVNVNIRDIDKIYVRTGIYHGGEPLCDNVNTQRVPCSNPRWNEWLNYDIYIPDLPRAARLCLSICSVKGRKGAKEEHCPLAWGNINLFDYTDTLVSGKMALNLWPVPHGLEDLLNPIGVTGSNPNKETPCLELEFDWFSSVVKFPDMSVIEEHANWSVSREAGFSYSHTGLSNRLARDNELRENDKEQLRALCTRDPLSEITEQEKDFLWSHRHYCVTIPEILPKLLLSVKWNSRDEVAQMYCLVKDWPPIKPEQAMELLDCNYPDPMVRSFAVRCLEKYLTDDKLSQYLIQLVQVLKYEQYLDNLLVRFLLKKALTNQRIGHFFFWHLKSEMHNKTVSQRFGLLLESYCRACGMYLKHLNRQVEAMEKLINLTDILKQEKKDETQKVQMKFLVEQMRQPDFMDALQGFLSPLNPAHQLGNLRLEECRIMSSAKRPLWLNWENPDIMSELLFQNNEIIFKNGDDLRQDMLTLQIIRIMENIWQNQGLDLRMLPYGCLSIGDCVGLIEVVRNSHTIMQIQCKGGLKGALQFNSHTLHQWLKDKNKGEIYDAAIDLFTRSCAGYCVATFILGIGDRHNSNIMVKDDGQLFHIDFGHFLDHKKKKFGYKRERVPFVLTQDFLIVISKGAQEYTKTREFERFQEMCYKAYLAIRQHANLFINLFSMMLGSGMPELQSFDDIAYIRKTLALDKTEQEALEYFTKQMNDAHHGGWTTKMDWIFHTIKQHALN
# Sequence of PI3Kα (P26450 whole entry partner, canonical isoform): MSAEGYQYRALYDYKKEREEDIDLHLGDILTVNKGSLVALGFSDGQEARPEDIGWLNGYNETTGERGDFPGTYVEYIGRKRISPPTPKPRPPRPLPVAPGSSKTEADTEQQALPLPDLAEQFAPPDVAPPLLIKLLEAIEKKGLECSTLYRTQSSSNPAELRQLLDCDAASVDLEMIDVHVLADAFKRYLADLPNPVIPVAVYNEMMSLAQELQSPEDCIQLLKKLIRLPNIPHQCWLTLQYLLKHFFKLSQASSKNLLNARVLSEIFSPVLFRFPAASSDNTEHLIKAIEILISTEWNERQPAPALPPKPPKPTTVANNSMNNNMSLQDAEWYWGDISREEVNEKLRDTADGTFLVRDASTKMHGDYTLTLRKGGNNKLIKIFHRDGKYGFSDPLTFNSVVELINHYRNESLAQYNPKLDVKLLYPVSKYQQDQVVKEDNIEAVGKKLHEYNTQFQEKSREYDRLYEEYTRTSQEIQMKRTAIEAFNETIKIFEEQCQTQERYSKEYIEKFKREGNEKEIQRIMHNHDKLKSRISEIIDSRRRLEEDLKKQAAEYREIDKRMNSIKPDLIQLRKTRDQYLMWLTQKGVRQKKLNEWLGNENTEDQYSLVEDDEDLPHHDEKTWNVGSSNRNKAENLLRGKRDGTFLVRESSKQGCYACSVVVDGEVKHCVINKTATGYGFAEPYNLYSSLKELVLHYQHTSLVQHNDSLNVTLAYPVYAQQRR
# Protocol: Swiss-3T3 fibroblasts and RAW-264 were seeded on a 96-well tissue culture plate and allowed to reach at least 90% confluency. […] Akt phosphorylation and total AKT was detected by ELISA. […] Results are expressed as relative [^3H] thymidine incorporation induced by IgM crosslinking.
# [1] = test system: patient chronic lymphocytic leukemia (CLL) cells; assay: Apoptosis of patient CLL cells (Annexin V-FITC/PI); format: cell-based, human
# Protocol: Peripheral blood was obtained from patients with B-CLL through the CLL Research Consortium from Ohio State University. Primary CD19-positive cells were isolated using Rosette-Sep (StemCell Technologies). Cells were maintained in RPMI 1640 (Invitrogen) supplemented with 10% heat-inactivated fetal bovine serum, 2 mmol/L L-glutamine, and penicillin (100 units/mL)/streptomycin (100 μg/mL; Invitrogen) at 37° C., 5% CO2, and high humidity. […] After incubation for 10 minutes at room temperature in a light-protected area, the specimens were quantified by flow cytometry on a FACScan™ (Becton Dickinson).
# [2] = test system: HS-578T, T47D, and MCF7 cells; assay: Apoptosis in breast cancer cell lines (Annexin V-FITC/7AAD); format: cell-based; conditions: 24 h
# Protocol: HS-578T, T47D, and MCF7 cells were treated with the compound of formula I or corresponding DMSO concentrations for 24 h. The percentage of apoptotic cells was determined by Annexin V-FITC/7AAD staining. Bottom left, viable cells ([…]); bottom right, early apoptotic cells (Annexin V-FITC positive only); top right, mid-late apoptotic cells (Annexin V-FITC/7AAD double-positive); and top left, late apoptotic/necrotic (7AAD positive only). Percentages of cells in each quadrant are indicated except for the bottom left quadrant (viable cells).
# [3] = human, in vivo
# Protocol: This example provides data relating to the concentration of the compound of formula I in the blood of a healthy human subject on day 7. The concentration was monitored over a period of 12 hours, after oral administration of 50, 100, or 200 mg BID of the compound of formula I on day 7 of the study. FIG. 11 follows the plasma concentration of the drug over a period of 12 hours from administration.
# In addition, single dose studies wherein 17-400 mg of the compound of formula I was administered in healthy volunteers was carried out.
# Table 1, below, provides an overview of the subjects in the study, wherein either a singe dose (SD) or multiple dose (MD) of the compound of formula I is administered to a subject at varying amounts. The “n” values refer to the number of subjects in each group.
# caspase 3 and PARP = assay: Cleavage of caspase 3 and PARP (immunoblot, Meso Scale plates); format: cell-based; conditions: 5 or 10 μM, 24 hrs
# Protocol: FIGS. […]
# Thereafter, cells were lysed and sized-fractionated and immunoblotted with antibody directed against FLIP, FIG. 29. Additionally, whole cell lysates were added to MDS (Meso Scale Diagnostics) multi-spot 96-well 4 spot plates coated with Total caspase-3, cleaved caspase-3, cleaved PARP, and BSA. Proteins were detected with antibodies labeled with SULFO-TAG reagent and quantified.
# patient AML cells = assay: Phospho-Akt production in patient AML cells; format: cell-based, human; conditions: 0.1, 1.0, 10 μM
# Excerpt: PI3Kδ is implicated in signaling in AML patient cells.
# HuVECs = assay: In vitro angiogenesis assay (tube formation); format: cell-based, human; conditions: 0, 1.0, or 10 μM, 8 h; p<0.05
# Protocol: HUVEC and endothelial growth media were obtained from Lonza (Walkersville, Md., USA). […] After 8 h, tube formation was evaluated using Leika DM IL microscopy (Leica Microsystems, Wetzlar, Germany) and analyzed with IM50 software (Leica Microsystems Imaging Solutions, Cambridge, UK). HUVEC cell migration and rearrangement was visualized, and the number of branching points counted.
# The effect of P110δ inhibition on angiogenesis was investigated.
# CLL cells = format: cell-based, human
# Protocol: (§1) This pro-survival effect was abrogated by the compound of formula I, which reduced CLL cell viability to 85±3% of controls at 48 hours (mean±SEM, n=15, *P<0.05). […] BCR cross-linking induces secretion of the chemokines CCL3 and CCL4 by CLL cells, which was quantified in CLL supernatants by ELISA.
# (§2) The CCL3 concentrations were reduced by the compound of formula I from 943±535 pg/mL to 156±8 pg/mL, and the CCL4 concentrations from 7433±4463 pg/mL to 316±53 pg/mL (mean±SEM, n=5, *P<0.05).
# CLL-NLC co-cultures = format: cell-based, human
# Protocol: as §1, §2
# [4] = test system: CLL cells co-cultured with MSCs; assay: CLL cells co-cultured with marrow stromal cells (MSC), DiOC6/PI viability; conditions: compound 5 μM; bendamustine, fludarabine, dexamethasone 10 μM
# Excerpt: The viable cell population was characterized by bright DiOC6 staining and PI exclusion, and was gated in the lower right corner of each contour plot.
# Viabilities of drug-treated samples were normalized to the viabilities of control samples at the respective timepoints (100%).
# CLL patients = assay: Samples from CLL patients undergoing treatment (phospho-flow, plasma cytokines); format: in vivo, human
# [5] = listed as compound of formula I
# Sequence of CIIbeta (O00750 whole entry): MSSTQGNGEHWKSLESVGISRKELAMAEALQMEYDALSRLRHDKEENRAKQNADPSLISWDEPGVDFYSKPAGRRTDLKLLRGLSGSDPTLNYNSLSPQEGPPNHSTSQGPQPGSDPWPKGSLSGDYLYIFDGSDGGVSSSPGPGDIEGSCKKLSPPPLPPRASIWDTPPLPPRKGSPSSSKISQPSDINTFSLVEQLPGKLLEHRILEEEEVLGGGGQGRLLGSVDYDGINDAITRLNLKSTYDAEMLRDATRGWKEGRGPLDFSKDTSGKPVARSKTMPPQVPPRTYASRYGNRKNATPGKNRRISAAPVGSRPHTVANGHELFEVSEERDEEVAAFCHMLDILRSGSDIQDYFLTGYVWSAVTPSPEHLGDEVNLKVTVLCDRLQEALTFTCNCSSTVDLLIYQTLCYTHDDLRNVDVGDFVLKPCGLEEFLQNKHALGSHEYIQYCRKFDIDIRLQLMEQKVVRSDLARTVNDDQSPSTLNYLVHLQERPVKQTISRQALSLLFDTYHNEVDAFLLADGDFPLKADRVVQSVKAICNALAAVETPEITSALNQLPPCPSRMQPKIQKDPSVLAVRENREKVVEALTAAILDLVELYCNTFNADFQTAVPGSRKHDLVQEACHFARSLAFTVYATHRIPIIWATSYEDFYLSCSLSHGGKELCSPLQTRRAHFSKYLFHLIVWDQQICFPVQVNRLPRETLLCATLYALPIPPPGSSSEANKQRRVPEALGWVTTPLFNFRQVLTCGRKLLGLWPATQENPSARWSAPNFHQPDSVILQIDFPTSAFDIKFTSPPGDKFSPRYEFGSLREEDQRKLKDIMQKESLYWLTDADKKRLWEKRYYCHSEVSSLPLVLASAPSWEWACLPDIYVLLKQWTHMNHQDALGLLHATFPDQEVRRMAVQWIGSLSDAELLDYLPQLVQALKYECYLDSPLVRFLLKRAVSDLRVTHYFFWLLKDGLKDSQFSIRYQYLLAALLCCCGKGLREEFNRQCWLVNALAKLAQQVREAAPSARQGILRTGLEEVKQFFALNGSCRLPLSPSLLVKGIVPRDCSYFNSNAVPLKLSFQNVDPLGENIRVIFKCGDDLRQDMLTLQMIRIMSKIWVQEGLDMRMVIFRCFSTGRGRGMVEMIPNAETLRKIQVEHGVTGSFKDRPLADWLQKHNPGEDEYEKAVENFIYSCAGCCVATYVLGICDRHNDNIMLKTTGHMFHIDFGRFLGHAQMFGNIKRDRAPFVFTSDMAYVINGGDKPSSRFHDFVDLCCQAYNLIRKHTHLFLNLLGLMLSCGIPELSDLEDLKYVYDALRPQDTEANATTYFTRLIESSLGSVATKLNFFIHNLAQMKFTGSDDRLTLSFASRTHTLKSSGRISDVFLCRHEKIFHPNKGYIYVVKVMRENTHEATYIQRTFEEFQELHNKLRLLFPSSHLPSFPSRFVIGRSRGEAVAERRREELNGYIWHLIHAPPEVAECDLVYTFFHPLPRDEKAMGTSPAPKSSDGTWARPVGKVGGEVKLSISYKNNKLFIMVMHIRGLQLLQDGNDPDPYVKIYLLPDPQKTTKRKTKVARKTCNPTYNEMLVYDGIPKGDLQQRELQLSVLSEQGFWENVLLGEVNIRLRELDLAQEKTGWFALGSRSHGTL
structure (smiles),measurement,setting,value
"CC[C@H](Nc1ncnc2[nH]cnc12)c1nc2cccc(F)c2c(=O)n1-c1ccccc1 [Compound I, 5-fluoro-3-phenyl-2-[1-(9H-purin-6-ylamino)-propyl]-3H-quinazolin-4-one]",IC50,CIIbeta,> 1 µM
same,IC50,mTOR,> 1 µM
same,IC50,PIP5Kβ,> 1 µM
same,EC50,PI3Kα,> 20 µM
same,apoptosis of CLL cells from poor prognosis patients,[1],induced apoptosis was seen
same,apoptosis of CLL cells from refractory/relapsed patients,[1],induced apoptosis was also seen to be effective
same,apoptosis of CLL patient cells,[1]; 96 hours,dose-dependent cytotoxicity; also recorded: results in apoptosis and the result appears to be dose-dependent
same,apoptosis of CLL cells from poor prognosis patients,[1]; listed as compound I,increased apoptosis
same,apoptosis of CLL cells from refractory/relapsed patients,[1]; [5],increased apoptosis
same,apoptosis in breast cancer cell lines,[2],cytotoxicity to three different breast cancer cell lines
same,apoptosis in breast cancer cell lines,[2]; [5],induces apoptosis in breast cancer cell lines
same,concentration level versus PI3Kδ EC50 in basophil,[3],exceeds the PI3Kδ EC50 concentration in basophil for at least 12 hours
same,tolerability in normal healthy volunteers,[3],well tolerated at doses above commonly used therapeutic doses
same,cleavage of caspase 3 and PARP,caspase 3 and PARP,dose dependent response in the cleavage of caspase 3 and PARP
same,phospho-Akt production in patient AML cells,patient AML cells,reduces phospho-Akt production in patient AML cells
same,capillary-like tube formation,HuVECs,inhibited capillary-like tube formation in a dose-dependent fashion
same,supernatant CCL3 concentration,"CLL cells; BCR cross-linking, from 4060±1392 pg/mL, mean±SEM, n=6",2901 ± 1220 pg/mL
same,supernatant CCL4 level,"CLL cells; BCR cross-linking, from 5721±1789 pg/mL, mean±SEM, n=6",3223 ± 1311 pg/mL
same,"CLL cell viability, % of controls","CLL cells; human, 48 h",85±3%
same,CXCL13 level,"CLL-NLC co-cultures; CLL-NLC co-cultures, from 151±35, n=4",70 ± 27 pg/mL
same,CCL3 concentration,"CLL-NLC co-cultures; CLL-NLC co-cultures, from 943±535 pg/mL, n=5",156 ± 8 pg/mL
same,CCL4 concentration,"CLL-NLC co-cultures; CLL-NLC co-cultures, from 7433±4463 pg/mL, n=5",316 ± 53 pg/mL
same,"CLL cell viability, % of untreated controls","CLL-NLC co-cultures; human, 48 h",64±6%
same,CLL cell death / survival in co-culture with MSC,[4],sensitized CLL cells to the cytotoxic agents
same,mean plasma level of CCL3,"CLL patients; Day28+, baseline 186 pg/mL, 14 CLL patients",29 pg/mL
same,mean plasma level of CXCL13,"CLL patients; Day28+, baseline 316 pg/mL, 14 CLL patients",40 pg/mL
same,mean plasma level of TNFα,"CLL patients; Day28+, baseline 104, 14 CLL patients",29 pg/mL
same,mean plasma level of CCL4,"CLL patients; Day28+, baseline 303, 14 CLL patients",70 pg/mL
same,mean plasma level of CCL22,"CLL patients; Day28+, baseline 1067, 14 CLL patients",533 pg/mL
same,down-regulation of pAkt(T308) in peripheral CLL cells,"CLL patients; patients on treatment, n=12",> 90%
same,cytotoxicity against p110δ-positive MM cells,MM cell lines,induced cytotoxicity against LB and INA-6 mM cells (p110δ-positive) in a dose- and time-dependent fashion
same,cytotoxicity in p110δ-negative cell lines,MM cell lines,minimal cytotoxicity

# From US20130064812A1, “COMBINATION THERAPIES FOR HEMATOLOGIC MALIGNANCIES” (Gilead Calistoga LLC, priority 2011, published 2013)
